Reference: patent US20090214434A1, “METHOD OF DETECTING AND TREATING ALLOGENIC CELLS RESPONSIBLE FOR ENDOMETRIOSIS” (priority 2004, published 2009)

Tests used:
endometriomas = assay: Human clinical trial: resolution or growth of endometriomas followed by monthly ultrasound under TFI chemotherapy and antioxidant counter therapy; type: in vivo
Text: When TFI chemotherapy is stopped to allow the thyroid a rest, we see a general improvement in iron scavenging at lower dose rates afterwards (which hints at a multi-step process that can be slowly poisoned, most probably by I^− to tri-iodide) and usually a recovery to visibility in those in-completely resolved endometriomas during this treatment hiatus. We timed this 3rd party evidence trial to happen as we approached a pre-planned thyroid rest period, taking monthly ultrasounds before to position each active endometrioma as closely as possible, and include three such rest periods, plus two thyroid examinations.
The simplest test was to gently down-regulate the CMI in a patient while that patient was still on TFI chemotherapy, and to observe what happens next. The patient then took 800 international units of vitamin E a day (as a tocopherol). […] A second antioxidant, dietary zinc (10 mg/day), was added to the regimen. Use of both antioxidants allowed us to say that this was not a special case for either antioxidant, though the cumulative effects were very obvious. Vitamin E was stopped two weeks before zinc, to provide a period of zinc only. TFI-induced resolution was still blocked.
The patient then went into their thyroid rest period, and as usual a few recently but incompletely resolved endometriomas developed, but so did two that had been thought resolved from two years ago for a total of five.

[1] = Ghent et al (1993); U.S. Pat. No. 4,555,347; cited from earlier work
[2] = system: normal self-cells of the uterus; assay: Transvaginal ultrasound of uterine lining / normal self-cells of the uterus, and menstrual period cycle, in the same patient; type: in vivo, human; conditions: patient taking aspirin with TFI
Text: In using transvaginal ultra sound, it was possible to view and compare the thickness of the uterine lining, and no abnormal change was observed despite all the activity in the peritoneal cavity.
It should be noted that use of counter chemotherapy produced no change in those similar normal self-cells of the uterus as detectable by ultrasound. All of these ultrasounds were taken at 3 to four days after the patient's periods, except the last one as they had their period cycle extended by taking aspirin.

II [TFI, thermodynamically free iodine]
clean-up of endometrial cell debris, aberrant organ attachments, endometriomas and stratum functional cell masses (endometriomas; clinical tests (FIG. 2), patients, administration of iodine): effective
time for resolution of endometriomas (Stage I to Stage IV process) (endometriomas; otherwise takes about 15 years without TFI): about one or two
pain (endometriomas; use of TFI in the endometriosis patient): relief from pain
toxicity compared with other forms of iodine [1]: least toxicity of all forms of iodine

CC(=O)Oc1ccccc1C(=O)O [aspirin, acetylsalicylic acid]
period cycle [2]: extended

Cc1c(C)c2c(c(C)c1O)CC[C@@](C)(CCC[C@H](C)CCC[C@H](C)CCCC(C)C)O2 [vitamin E, alpha tocopherol]
change in endometriomas (number and size) (endometriomas; patient still on TFI chemotherapy, 800 international units of vitamin E a day): Minor change was observed, with new endometriomas developing and old ones rapidly increasing in size

[Zn] [zinc]
TFI-induced resolution of endometriomas (endometriomas; period of zinc only (vitamin E stopped two weeks before zinc), dietary zinc 10 mg/day, on TFI): still blocked
